According to US20080039434A1, “Treatment of Interstitial Cystitis with Vitamin D Compounds” (BioXell S. p.A., priority 2004, published 2008):
“And” between values parts separate entries of the source, which are not always exact repeats. Identical values can stand only once.

Test system: rats with CYP-induced cystitis
Test: Cystometry in conscious rats with cyclophosphamide (CYP) induced chronic IC, Compound A
Type: in vivo, rat
Parameters: Bl. Cap. / FP / TP / MP / amplitude of NVBC: unit not given here
Details: Compound A oral 0.1 μg/kg daily for 14 days
Description: The rat model of chemical cystitis induced by intraperitoneal injection of CYP has been Well accepted. CYP is used in clinical practice in the treatment of a number of malignant tumors. One of its metabolites, acrolein, is excreted in urine in large concentrations causing hemorrhagic cystitis associated with symptoms of urinary frequency, urgency and pelvic pain. The inflammatory process is characterized by changes in gross histology of bladder, increase in number and distribution of inflammatory cell infiltrates (mast cells, macrophage, PMNs), cyclo-oxygenase-2 expression and prostaglandin production, growth factor and cytokine production. The rat model of chemical cystitis closely resembles interstitial cystitis, a chronic, painful urinary bladder syndrome and has been used for the testing of therapeutic agents in the past.
This model was used to test the effects of oral administration of 1,25-dihydroxyvitamin D3 analogue in rats with CYP-induced cystitis. The effects of the treatment on the cystometric parameters in a conscious freely moving rat with CYP-induced cystitis were monitored. The following cystometric parameters were recorded in each animal: • bladder capacity • filling pressure (pressure at the beginning of the bladder filling) • threshold pressure (bladder pressure immediately prior to micturition) • micturition pressure (the maximal bladder pressure during micturition) • presence or absence of non-voiding bladder contractions (increases in bladder pressure of at least 10 cm H2O without release of urine) • amplitude of non-voiding bladder contraction.
Animals: Wistar female rats, age 8 weeks, weighing 125-175 g were used. […] Following recovery all animals received three intraperitoneal injections of CYP and subsequently were divided into the treatment and sham control groups.
Treatment group: Rats treated with oral 1,25-dihydroxyvitamin D3 analog (1,3-Di-O-acetyl-1,25-dihydroxy-16,23Z-diene-26,27-hexafluoro-19-nor-cholecalciferol) “Compound A” for 14 days (daily dose of 0.1 μg/kg)
Cystometry was performed 24 hours following the last dose of the drug or vehicle on awake freely moving animals.
A lower midline abdominal incision was performed under general inhalation anesthesia (isoflurine with O2) and polyethylene tubing (PE-50, Clay Adams, Parsippany, N.J.) with the end flared by heat was inserted into the dome of the bladder and secured in place with a 6-0 prolene purse string suture. The distal end of the tubing was heat-sealed, tunneled subcutaneously and externalized at the back of the neck, out of the animal's reach. Abdominal and neck incisions were closed with 4-0 nylon sutures.
Following recovery (5 days) subject animals underwent three intraperitoneal injections of CYP (Sigma Chemical, St. Luis, Mo.; 75 mg/kg each, intraperitoneal) over the period of nine days. On the tenth day following the first CYP injection the sham control animals received the vehicle only, whereas the experimental group were treated with the 1,25-dihydroxyvitamin D3 analogue 1,3-Di-O-acetyl-1,25-dihydroxy-16,23Z-diene-26,27-hexafluoro-19-nor-cholecalciferol “Compound A” (delivered orally using gavage). Two weeks following the initiation of the treatment animals underwent a conscious cystometrogram to assess the function of the urinary bladder.
An animal was placed unrestrained in a cage and the catheter was connected via a T-tube to a pressure transducer (Grass® Model PT300, West Warwick, R.I.) and microinjection pump (Harvard Apparatus 22, South Natick, Mass.). A 0.9% saline solution was infused at room temperature into the bladder at a rate of 10 ml/hour. […]. At least three reproducible micturition cycles were recorded after the initial stabilization period of 25-30 minutes.

CC(=O)OC1C/C(=C/C=C2\CCC[C@]3(C)C(C(C)C/C=C\C(O)(C(F)(F)F)C(F)(F)F)=CCC23)C[C@@H](OC(C)=O)C1 (stereo partly drawn) [Compound A, 1,3-Di-O-acetyl-1,25-dihydroxy-16,23Z-diene-26,27-hexafluoro-19-nor-cholecalciferol] was tested, and the “Bl. Cap.” value (CYP cystitis, individual rats RB7, RB13, RB15, three micturition cycles each) was 1.9 and 1.3 (2×) and 2.5 and 1.5 and 0.7 (2×) and 0.8 and 1.4, the “amplitude of NVBC” value (individual rats, three micturition cycles each) was 10 and 11 (2×) and 0 (6×) and the FP (filling pressure, individual rats, three micturition cycles each) was 15 and 14 (3×) and 12 and 11 and 10 and 13 (2×). For the same molecule, the MP (micturition pressure, individual rats, three micturition cycles each) was 105 and 97 (2×) and 90 and 100 and 108 and 98 and 101 and 104, the “# of NVBC” value (non-voiding bladder contractions, individual rats, three micturition cycles each) was 4 and 8 (2×) and 0 (6×) and the TP (threshold pressure, individual rats, three micturition cycles each) was 16 and 17 and 14 (4×) and 12 and 11 and 15.
